# In US6835755B1, “Naphthoquinone derivatives and their use in the treatment and control of tuberculosis” (priority 1999, dated 2004):
# Test system: Mycobacterium tuberculosis sensitive strain (H37Rv)
# Test: microbe, parasite or virus in culture
# Assay type: cell-based
# Details: for ΔGI values of plant extracts: at MIC, mean ± s.d.
SMILES,ΔGI values of plant extracts (H37 sensitive strain),"MIC (Mycobacterium tuberculosis, H37RV, H37 sensitive strain, radiometric method) [µg/mL]",ΔGI values of plant extracts (H37Rv sensitive strain ATCC27294),"MIC (Minimal inhibitory concentration) (H37Rv sensitive strain ATCC27294, radiometric method) [µg/mL]"
"Cc1cc(O)c2c(c1)C(=O)C(c1c(C)cc3c(c1O)C(=O)C=CC3=O)=CC2=O [diospyrin, 5,5′ dihydroxy 7,7′ binaphthoquinone]",−1 ± 1.41,100,,
"Cc1cc(O)c2c(c1)C(=O)C=CC2=O [7-methyljuglone, 5-hydroxy-7-methyl-1,4-naphtoquinone]",,,0 ± 1,50
